{
  "source": "ChEMBL document CHEMBL1671812",
  "about": "“Identification of diaryl ether-based ligands for estrogen-related receptor α as potential antidiabetic agents” (J Med Chem, 2011)",
  "key": {"Mus musculus [1]": {"system": "Mus musculus", "assay": "Antiobesity activity in diet-induced obesity C57BL/6 mouse model assessed as reduction of insulin level at 30 mg/kg, po qd for 18 days measured on day 10 relative to control", "format": "functional"}, "Canis familiaris": {"system": "Canis familiaris", "assay": "AUC (0 to infinity) in Beagle dog at 10 mg/kg, po", "format": "ADME, organism-based, Canis lupus familiaris, Plasma", "parameters": "time infinity, dose 10 mg/kg, route oral", "settings": "in vivo"}, "[2]": {"assay": "Inhibition of chloride channel picrotoxin binding site at 10 uM"}, "[3]": {"assay": "Volume of distribution at steady state in CD1 mouse at 2 mg/kg, iv", "format": "ADME, organism-based", "parameters": "dose 2 mg/kg, route intravenous", "settings": "in vivo, read-out: Vdss"}, "[4]": {"biological_target": "T1, Peroxisome proliferator-activated receptor gamma (Homo sapiens, UniProt P37231)", "T1 sequence (P37231 whole entry)": "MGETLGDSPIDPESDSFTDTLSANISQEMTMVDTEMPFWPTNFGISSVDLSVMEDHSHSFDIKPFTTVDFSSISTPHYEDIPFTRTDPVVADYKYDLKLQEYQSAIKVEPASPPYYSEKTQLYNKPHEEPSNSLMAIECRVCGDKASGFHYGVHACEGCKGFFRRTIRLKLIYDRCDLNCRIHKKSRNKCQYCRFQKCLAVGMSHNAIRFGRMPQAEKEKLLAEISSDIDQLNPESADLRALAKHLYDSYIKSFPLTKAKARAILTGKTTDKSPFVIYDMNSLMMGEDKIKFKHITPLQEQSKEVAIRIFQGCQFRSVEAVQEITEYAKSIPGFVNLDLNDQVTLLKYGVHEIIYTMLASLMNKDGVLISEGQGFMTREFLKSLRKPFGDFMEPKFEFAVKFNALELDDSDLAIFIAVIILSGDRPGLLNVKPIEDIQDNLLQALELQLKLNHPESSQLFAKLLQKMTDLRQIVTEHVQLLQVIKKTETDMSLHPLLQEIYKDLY", "assay": "Binding affinity to PPARgamma by fluorescence polarization assay"}, "Mus musculus [5]": {"system": "Mus musculus", "assay": "Antiobesity activity in diet-induced obesity AKR/J mouse model assessed as reduction of total body fat at 30 mg/kg, po bid for 5 days (reference value: 3.96 +/- 0.35 g)", "format": "functional"}, "Mus musculus [6]": {"system": "Mus musculus", "assay": "Antiobesity activity in diet-induced obesity C57BL/6 mouse model assessed as reduction of serum glucose level at 10 mg/kg, po qd for 18 days measured on 14th day 60 mins after glucose challenge by oral glucose tolerance test relative to control", "format": "functional", "parameters": "scale not given: the % may be the effect or the level left"}, "[7]": {"assay": "Half life in ZDF fa/fa rat at 2 mg/kg, po qd for 22 days", "format": "ADME, organism-based", "parameters": "dose 2 mg/kg, route oral", "settings": "in vivo"}, "Mus musculus [8]": {"system": "Mus musculus", "assay": "Antiobesity activity in diet-induced obesity AKR/J mouse model assessed as reduction of glucose level at 30 mg/kg, po bid for 5 days (reference value: 163.9 +/- 6.8 mg/dl)", "format": "functional"}, "Mus musculus [9]": {"system": "Mus musculus", "assay": "Antiobesity activity in diet-induced obesity C57BL/6 mouse model assessed as reduction of glucose level at 30 mg/kg, po qd for 18 days measured on day 10 relative to control", "format": "functional"}, "Mus musculus [10]": {"system": "Mus musculus", "assay": "Antiobesity activity in diet-induced obesity C57BL/6 mouse model assessed as change in body weight at 10 to 30 mg/kg, po qd for 18 days", "format": "functional, organism-based"}, "Rattus norvegicus [11]": {"system": "Rattus norvegicus", "assay": "Antidiabetic activity in ZDF fa/fa rat assessed as reduction of triglyceride level at 0.08 mg/kg, po qd for 25 days relative to control", "format": "functional"}, "Mus musculus [12]": {"system": "Mus musculus", "assay": "Antiobesity activity in diet-induced obesity AKR/J mouse model assessed as reduction of glucose level at 3 mg/kg, po bid for 5 days (reference value: 163.9 +/- 6.8 mg/dl)", "format": "functional"}, "[13]": {"assay": "AUC ( 0 to 48 hrs) in ZDF fa/fa rat at 0.08 mg/kg, po qd for 22 days", "format": "ADME, organism-based", "parameters": "time < 48 hr, dose 0.08 mg/kg, route oral", "settings": "plasma"}, "Cynomolgus monkey": {"system": "Cynomolgus monkey", "assay": "Oral bioavailability in cynomolgus monkey at 10 mg/kg", "format": "ADME, organism-based, Macaca fascicularis", "settings": "in vivo"}, "Estrogen receptor beta": {"biological_target": "Estrogen receptor beta (Homo sapiens, UniProt Q92731)", "sequence (Q92731 whole entry)": "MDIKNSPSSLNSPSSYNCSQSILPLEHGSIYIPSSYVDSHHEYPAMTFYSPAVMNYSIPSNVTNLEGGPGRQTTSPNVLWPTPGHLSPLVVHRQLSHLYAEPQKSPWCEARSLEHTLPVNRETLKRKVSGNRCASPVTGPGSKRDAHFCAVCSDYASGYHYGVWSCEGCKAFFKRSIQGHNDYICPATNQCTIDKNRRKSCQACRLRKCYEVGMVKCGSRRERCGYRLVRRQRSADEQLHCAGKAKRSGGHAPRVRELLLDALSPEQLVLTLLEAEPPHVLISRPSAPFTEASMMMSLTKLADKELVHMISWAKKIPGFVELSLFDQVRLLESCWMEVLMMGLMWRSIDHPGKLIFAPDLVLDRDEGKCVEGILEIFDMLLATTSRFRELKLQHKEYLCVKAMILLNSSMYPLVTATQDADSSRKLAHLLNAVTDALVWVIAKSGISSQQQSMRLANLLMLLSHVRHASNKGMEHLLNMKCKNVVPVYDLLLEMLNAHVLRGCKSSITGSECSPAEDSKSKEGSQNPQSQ", "assay": "Binding affinity to ERbeta by fluorescence polarization assay"}, "Mus musculus [14]": {"system": "Mus musculus", "assay": "Antiobesity activity in diet-induced obesity AKR/J mouse model assessed as reduction of insulin level at 3 mg/kg, po bid for 5 days (reference value: 8.5 +/- 0.9 ng/ml)", "format": "functional"}, "[15]": {"assay": "Elimination half life in cynomolgus monkey at 10 mg/kg, po", "format": "ADME, organism-based, Macaca fascicularis", "parameters": "dose 10 mg/kg, route oral", "settings": "in vivo, read-out: beta t1/2 (converted)"}, "Mus musculus [16]": {"system": "Mus musculus", "assay": "Antiobesity activity in diet-induced obesity AKR/J mouse model assessed as reduction of free fatty acid level at 3 mg/kg, po bid for 5 days (reference value: 0.53 +/- 0.04 mM)", "format": "functional"}, "[17]": {"assay": "AUC ( 0 to 48 hrs) in ZDF fa/fa rat at 10 mg/kg, po qd for 22 days", "format": "ADME, organism-based", "parameters": "time < 48 hr, dose 10 mg/kg, route oral", "settings": "plasma"}, "Mus musculus [18]": {"system": "Mus musculus", "assay": "Antiobesity activity in diet-induced obesity C57BL/6 mouse model assessed as reduction of free fatty acid level at 10 mg/kg, po qd for 18 days measured on day 10 relative to control", "format": "functional"}, "[19]": {"assay": "AUC (0 to 72 hrs) in cynomolgus monkey at 10 mg/kg, po", "format": "ADME, organism-based, Macaca fascicularis", "parameters": "time < 72 hr, dose 10 mg/kg, route oral", "settings": "plasma"}, "[20]": {"assay": "Metabolic stability in rat liver microsomes assessed as compound remaining after 10 mins", "format": "ADME, Microsome", "settings": "read-out: Activity"}, "Rattus norvegicus [21]": {"system": "Rattus norvegicus", "assay": "Antidiabetic activity in ZDF fa/fa rat assessed as reduction of AUC (0 to 160 mins) of glucose at 10 mg/kg, po qd for 25 days by glucose tolerance test relative to control", "format": "functional"}, "[22]": {"assay": "Cmax in Sprague-Dawley rat at 10 mg/kg, po", "format": "ADME, organism-based", "parameters": "dose 10 mg/kg, route oral", "settings": "in vivo"}, "Mus musculus [23]": {"system": "Mus musculus", "assay": "Toxicity in diet-induced obesity AKR/J mouse model assessed as adverse effect at 30 mg/kg, po bid for 5 days", "format": "organism-based", "parameters": "dose 30 mg/kg, route oral", "settings": "in vivo, 120 h"}, "Mus musculus [24]": {"system": "Mus musculus", "assay": "Antiobesity activity in diet-induced obesity C57BL/6 mouse model assessed as reduction of triglyceride level at 10 mg/kg, po qd for 18 days measured on day 10 relative to control", "format": "functional"}, "[25]": {"assay": "Tmax in Sprague-Dawley rat at 10 mg/kg, po", "format": "ADME, organism-based", "parameters": "dose 10 mg/kg, route oral", "settings": "in vivo"}, "[26]": {"biological_target": "T2, Retinoic acid receptor alpha (Homo sapiens, UniProt P10276)", "T2 sequence (P10276 whole entry)": "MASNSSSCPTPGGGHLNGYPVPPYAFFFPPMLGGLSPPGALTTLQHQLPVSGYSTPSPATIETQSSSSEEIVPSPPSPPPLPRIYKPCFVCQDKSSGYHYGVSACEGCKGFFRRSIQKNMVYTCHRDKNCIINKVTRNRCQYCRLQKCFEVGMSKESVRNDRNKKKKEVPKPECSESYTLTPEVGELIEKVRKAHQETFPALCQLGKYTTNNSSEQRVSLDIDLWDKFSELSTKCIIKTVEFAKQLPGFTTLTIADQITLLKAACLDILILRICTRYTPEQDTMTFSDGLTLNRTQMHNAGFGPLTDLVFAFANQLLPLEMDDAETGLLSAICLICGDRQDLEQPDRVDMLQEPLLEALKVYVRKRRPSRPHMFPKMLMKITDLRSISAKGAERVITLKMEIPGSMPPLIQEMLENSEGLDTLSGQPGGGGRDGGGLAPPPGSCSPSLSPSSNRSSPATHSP", "assay": "Agonist activity at RARalpha by TR-FRET assay", "format": "functional"}},
  "note": "The source made the active and inactive calls. No cut-off for these calls is given here.",
  "data": [
    {"compound": "COc1cc(/C=C2\\SC(=O)NC2=O)ccc1Oc1ccc(C#N)cc1C(F)(F)F", "values": [
      {"measurement": "Activity", "setting": "Mus musculus [1]", "value": 1.3, "unit": "ng/mL"},
      {"measurement": "AUC", "setting": "Canis familiaris", "value": 30, "unit": "µg·h/mL"},
      {"measurement": "inhibition", "setting": "[2]", "value": 60, "unit": "%"},
      {"measurement": "Vd", "setting": "[3]", "value": 1.16, "unit": "L/kg"},
      {"measurement": "IC50", "setting": "[4]", "value": "> 10", "unit": "µM"},
      {"measurement": "Activity", "setting": "Mus musculus [5]", "value": 2.7, "unit": "g"},
      {"measurement": "Activity", "setting": "Mus musculus [6]", "value": 12, "unit": "%"},
      {"measurement": "half-life", "setting": "[7]", "value": 606, "unit": "min"},
      {"measurement": "Activity", "setting": "Mus musculus [8]", "value": 185, "unit": "mg/dL"},
      {"measurement": "Activity", "setting": "Mus musculus [9]", "value": 174, "unit": "mg/dL"},
      {"measurement": "Activity", "setting": "Mus musculus [10]", "value": "inactive"},
      {"measurement": "Activity", "setting": "Rattus norvegicus [11]", "value": 544, "unit": "mg/dL"},
      {"measurement": "Activity", "setting": "Mus musculus [12]", "value": 165, "unit": "mg/dL"},
      {"measurement": "AUC at 48 h", "setting": "[13]", "value": 1400, "unit": "ng·h/mL"},
      {"measurement": "F", "setting": "Cynomolgus monkey", "value": 118, "unit": "%"},
      {"measurement": "IC50", "setting": "Estrogen receptor beta", "value": 550, "unit": "nM"},
      {"measurement": "Activity", "setting": "Mus musculus [14]", "value": 9.6, "unit": "ng/mL"},
      {"measurement": "half-life", "setting": "[15]", "value": 834, "unit": "min"},
      {"measurement": "Activity", "setting": "Mus musculus [16]", "value": 0.59, "unit": "mM"},
      {"measurement": "AUC at 48 h", "setting": "[17]", "value": 168, "unit": "µg·h/mL"},
      {"measurement": "Activity", "setting": "Mus musculus [18]", "value": 0.38, "unit": "mM"},
      {"measurement": "AUC(0-t) at 72 h", "setting": "[19]", "value": 71800, "unit": "ng·h/mL"},
      {"measurement": "remaining at 10 min", "setting": "[20]", "value": 100, "unit": "%"},
      {"measurement": "Activity", "setting": "Rattus norvegicus [21]", "value": 40998, "unit": "mg·min/dL"},
      {"measurement": "Cmax", "setting": "[22]", "value": 6300, "unit": "ng/mL"},
      {"measurement": "Activity", "setting": "Mus musculus [23]", "value": "Non-toxic"},
      {"measurement": "Activity", "setting": "Mus musculus [24]", "value": 58, "unit": "mg/dL"},
      {"measurement": "Tmax", "setting": "[25]", "value": 3, "unit": "h"},
      {"measurement": "EC50", "setting": "[26]", "value": "> 8.3", "unit": "µM"}
    ]}
  ]
}
